Patent publication US20100062987A1, “ANTICONVULSIVE PHARMACEUTICAL COMPOSITIONS” (INSERM (Institut National de la Sante et de la Recherche …, priority 2006, published 2010)

Key:
BALB/c mice [1] = assay: Light dependence of the vigabatrin-elicited retinal toxicity (darkness vs 12h light/dark cycle); format: in vivo
Protocol: (§1) BALB/c mice (16 treated, 10 controls) were purchased from Janvier (Le Genest-St-lsle, France) at six weeks. VGB dissolved in 0.9%
(§2) NaCl at 100 mg/m1 was intraperitoneally injected daily for 30 days at a final concentration of 250 mg/kg as described for animal treatment of epilepsy (Andre V, Ferrandon A, Marescaux C, Nehlig A. Vigabatrin protects against hippocampal damage but is not antiepileptogenic in the lithium-pilocarpine model of temporal lobe epilepsy. Epilepsy Res. 2001;47:99-117). This dose was slightly higher than that prescribed to adult patient ([…]), children (100 mg/kg), or infants ([…]) (Bialer M, Johannessen S I, Kupferberg H J et al. Progress report on new antiepileptic drugs: a summary of the Fifth Eilat Conference (EILAT V). Epilepsy Res. 2001;43:11-58).
(§3) Eye cups were fixed overnight at 4° C. in 4% (wt/vol) paraformaldehyde in phosphate buffered saline (PBS) 0.01 M, pH 7.4. After cryoprotection in PBS containing successively 10%, 20% and 30% sucrose at 4° C., the tissue was embedded in OCT (Labonord, Villeneuve d'Ascq, France). Vertical sections (8-10 μm thickness) were permeabilized for 5 minutes in PBS containing 0.1% Triton X-100 (Sigma, St. Louis, Mo.), rinsed, and incubated in PBS containing 1% bovine serum albumin (Eurobio, Les-Ulis, France), 0.1% Tween 20 (Sigma), and 0.1% sodium azide (Merck, Fontenay-Sous-Bois, France) for 2 hours at room temperature. The primary antibody added to the solution was incubated for 2 hours at room temperature. The polycolonal antibodies were directed against the protein kinase C alpha (PKCα) (1:2000, Sigma), VGluT1 (1:2000, Chemicon), Goα (K-20; 1:100, Santa Cruz), calbindin D-28K (1:500, Chemicon), mouse cone arrestin/ Luminaire junior (LUMIj) (1:20,000, ^27). The monoclonal antibodies were directed against Goα (1:2000, Chemicon), bassoon (1:100, StressGen) and calbindin D-28K (1:500, Sigma). After rinses, sections were incubated with the secondary antibody, goat anti-rabbit IgG or rabbit anti-mouse IgG conjugated to either Alexa TM594 or Alexa TM488 (1:500, Molecular Probes, Eugene, Oreg.) for 2 hours. The dye, diamidiphenyl-indole (DAPI) was added to the last incubated solutions. Sections were rinsed, mounted with Fluorsave reagent (Calbiochem, San Diege, Calif.) and viewed with a Leica microscope (LEICA DM 5000B) equipped with a Ropper scientific camera (Photometrics cool SNAP TM FX).
Albino rats only are sensitive to the VGB-elicited retinal toxicity (Butler W H, Ford G P, Newberne J W. A study of the effects of vigabatrin on the central nervous system and retina of Sprague Dawley and Lister-Hooded rats. Toxicol Pathol. 1987;15:143-148). […]

BALB/c mice [2] = assay: Retinal histology / immunolabelling of VGB-treated mice; format: in vivo; details: VGB 250 mg/kg i.p. daily for 30 days
Protocol: as §1, §2, §3

rats = details: cited from earlier work
patients = patients under therapeutical treatment; cited from earlier work
[3] = animals maintained in a dark room throughout the treatment

- Areas with a highly disorganized outer nuclear layer (ONL), animals affected (BALB/c mice [2]; albino mice): 5 of 16
- Cone photoreceptor terminals, cone arrestin and Goα immunolabelling (BALB/c mice [2]; mice): cone terminals remained in the OPL
- Cone photoreceptors, cone arrestin immunolabelling (BALB/c mice [2]; mice): cone outer segments had disappeared
- Photoreceptor synaptic vesicles, VGLUT1 immunolabelling (BALB/c mice [2]; mice): observed deep into the ONL
- GFAP staining of glial Muller cells (BALB/c mice [2]; mice, vs control albino mice): not increased
SMILES: C=CC(N)CCC(=O)O (stereo not shown) [VGB, 4-amino-5-hexenoic acid]
- Bipolar cell dendritic growth in the ONL (BALB/c mice [1]; [3]): found not to grow dendrites in the ONL
- Photoreceptor terminal withdrawal in the ONL (BALB/c mice [1]; [3]): did not retract their terminals in the ONL
- Other retinal damages like ONL disorganization (BALB/c mice [1]; animals maintained in darkness): not observed
- Bipolar cell dendritic growth and photoreceptor terminal withdrawal (BALB/c mice [1]; animals under the 12h light/dark cycle): showed the bipolar cell dendritic growth and the photoreceptor terminal withdrawal
- Contact of rod photoreceptor terminals with postsynaptic neurons, VGLUT1/Goα and bassoon/PKCα double immunolabelling (BALB/c mice [2]; mice): a few synaptic ribbons were not contacted by a rod bipolar cell dendrite
- Horizontal cell dendrites, calbindin immunolabelling (BALB/c mice [2]; mice): horizontal cells extended their dendrites deep into the ONL
- ON bipolar cell dendrites, Goα immunolabelling (BALB/c mice [2]; mice): extended their dendrites deep into the ONL
- Photoreceptor synaptic ribbon, bassoon immunolabelling (BALB/c mice [2]; mice): punctuate labelling was observed to penetrate deep into the ONL
- Rod and cone ON bipolar cell plasticity, PKCα and Goα double immunolabelling (BALB/c mice [2]; mice): both rod and cone ON bipolar cells underwent plasticity
- Major retinal changes (rats): retinal architecture disorganization, a major glial reaction, cone damages and photoreceptor apoptosis
- Undesirable effects on vision (patients): irreversible constriction of the visual field
